# Experimental data reported in patent US20100267561A1, “HERBICIDAL PYRIDAZINONE DERIVATIVES” (priority 2007, published 2010).
# Tests used:
# Assay type in all cases: in vivo
# [1] = test system: Italian ryegrass (Lolium multiflorum); test: Test B pre-/postemergence plant response; details: Preemergence
# In short: (§1)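 Visual scoring from 0 (no effect) to 100 (complete control) against untreated controls was done 13 to 15 days after greenhouse treatment. Chemicals were formulated in a surfactant-containing non-phytotoxic solvent and applied to soil preemergence or to 1- to 4-leaf (2-18 cm) plants postemergence.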
# [2] = test system: blackgrass (Alopecurus myosuroides); test: Test B pre-/postemergence plant response; details: Preemergence
# In short: as §1
# [3] = test system: catchweed bedstraw (Galium aparine); test: Test B pre-/postemergence plant response; details: Preemergence
# In short: as §1
# [4] = test system: common (oilseed) sunflower (Helianthus annuus); test: Test B pre-/postemergence plant response; details: Preemergence
# In short: as §1
# [5] = test system: common ragweed (Ambrosia elation); test: Test B pre-/postemergence plant response; details: Preemergence
# In short: as §1
# [6] = test system: downy bromegrass (Bromus tectorum); test: Test B pre-/postemergence plant response; details: Preemergence
# In short: as §1
# [7] = test system: eastern black (E.B.) nightshade (Solanum ptycanthum); test: Test B pre-/postemergence plant response; details: Preemergence
# In short: as §1
# [8] = test system: johnsongrass (Sorghum halepense); test: Test B pre-/postemergence plant response; details: Preemergence
# In short: as §1
# [9] = test system: large crabgrass (Digitaria sanguinalis); test: Test B pre-/postemergence plant response; details: Preemergence
# In short: as §1
# [10] = test system: morningglory (Ipomoea coccinea); test: Test B pre-/postemergence plant response; details: Preemergence
# In short: as §1
# [11] = test system: pigweed (Amaranthus retroflexus); test: Test B pre-/postemergence plant response; details: Preemergence
# In short: as §1
# [12] = test system: wild oat (Avena fatua); test: Test B pre-/postemergence plant response; details: Preemergence
# In short: as §1
# [13] = test system: barnyardgrass (Echinochloa crus-galli); test: Test B flooded paddy test plant response
# In short: (§2)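 Rice, umbrella sedge, ducksalad and barnyardgrass at 2-leaf stage; pots flooded to 3 cm, compounds applied into paddy water, depth held throughout. Greenhouse 13 to 15 days, then visual rating vs untreated controls on 0–100 scale (0 no effect, 100 complete control); dash means no test result.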
# [14] = test system: rice (Oryza sativa); test: Test B flooded paddy test plant response
# In short: as §2
# [15] = 16 g ai/ha, scale 0 to 100 (0 no effect, 100 complete control)
# [16] = 31 g ai/ha, 0 to 100 scale, 0 no effect, 100 complete control
# [17] = Flood (flooded paddy test), 62 g ai/ha, scale 0 to 100, 0 no effect, 100 complete control
# [18] = Flood (flooded paddy test), 125 g ai/ha, scale 0 to 100, 0 no effect, 100 complete control
# [19] = Flood (flooded paddy test), 250 g ai/ha, scale 0 to 100, 0 no effect, 100 complete control
# [20] = Flood, 31 g ai/ha, scale 0 to 100
smiles,measurement,setting,value
Cn1ncc(O)c(-c2nn(-c3ccc(Cl)cc3)cc2Br)c1=O [Compound 31],"Plant response rating, Ryegrass, Italian",[1]; [15],90
same,"Plant response rating, Ryegrass, Italian",[1]; [16],90
same,"Plant response rating, Ryegrass, Italian","[1]; 62 g ai/ha, scale 0 to 100",100
same,"Ryegrass, Italian plant response rating","[1]; 8 g ai/ha, scale 0 to 100",50
same,"Plant response rating, Blackgrass",[2]; [15],90
same,"Plant response rating, Blackgrass",[2]; [16],98
same,"Plant response rating, Blackgrass","[2]; 62 g ai/ha, scale 0 to 100",100
same,Blackgrass plant response rating,"[2]; 8 g ai/ha, scale 0 to 100",80
same,"Plant response rating, Galium",[3]; [15],0
same,"Plant response rating, Galium",[3]; [16],0
same,"Plant response rating, Galium","[3]; 62 g ai/ha, scale 0 to 100",50
same,Galium plant response rating,"[3]; 8 g ai/ha, scale 0 to 100",0
same,"Plant response rating, Sunflower",[4]; [15],0
same,"Plant response rating, Sunflower",[4]; [16],0
same,"Plant response rating, Sunflower","[4]; 62 g ai/ha, scale 0 to 100",0
same,Sunflower plant response rating,"[4]; 8 g ai/ha, scale 0 to 100",0
same,"Plant response rating, Ragweed",[5]; [15],0
same,"Plant response rating, Ragweed",[5]; [16],0
same,"Plant response rating, Ragweed","[5]; 62 g ai/ha, scale 0 to 100",0
same,Ragweed plant response rating,"[5]; 8 g ai/ha, scale 0 to 100",0
same,"Plant response rating, Bromegrass, Downy",[6]; [15],0
same,"Plant response rating, Bromegrass, Downy",[6]; [16],65
same,"Plant response rating, Bromegrass, Downy","[6]; 62 g ai/ha, scale 0 to 100",85
same,"Bromegrass, Downy plant response rating","[6]; 8 g ai/ha, scale 0 to 100",0
same,"Plant response rating, Nightshade, E. B.",[7]; [15],0
same,"Plant response rating, Nightshade, E. B.",[7]; [16],0
same,"Plant response rating, Nightshade, E. B.","[7]; 62 g ai/ha, scale 0 to 100",0
same,"Nightshade, E. B. plant response rating","[7]; 8 g ai/ha, scale 0 to 100",0
same,"Plant response rating, Johnsongrass",[8]; [15],60
same,"Plant response rating, Johnsongrass",[8]; [16],75
same,"Plant response rating, Johnsongrass","[8]; 62 g ai/ha, scale 0 to 100",75
same,Johnsongrass plant response rating,"[8]; 8 g ai/ha, scale 0 to 100",55
same,"Plant response rating, Crabgrass, Large",[9]; [15],90
same,"Plant response rating, Crabgrass, Large",[9]; [16],100
same,"Plant response rating, Crabgrass, Large","[9]; 62 g ai/ha, scale 0 to 100",100
same,"Crabgrass, Large plant response rating","[9]; 8 g ai/ha, scale 0 to 100",80
same,"Plant response rating, Morningglory",[10]; [15],0
same,"Plant response rating, Morningglory",[10]; [16],0
same,"Plant response rating, Morningglory","[10]; 62 g ai/ha, scale 0 to 100",0
same,Morningglory plant response rating,"[10]; 8 g ai/ha, scale 0 to 100",0
same,"Plant response rating, Pigweed",[11]; [15],0
same,"Plant response rating, Pigweed",[11]; [16],0
same,"Plant response rating, Pigweed","[11]; 62 g ai/ha, scale 0 to 100",0
same,Pigweed plant response rating,"[11]; 8 g ai/ha, scale 0 to 100",0
same,"Plant response rating, Oat, Wild",[12]; [15],45
same,"Plant response rating, Oat, Wild",[12]; [16],70
same,"Plant response rating, Oat, Wild","[12]; 62 g ai/ha, scale 0 to 100",90
same,"Plant response rating, Barnyardgrass",[13]; [17],0
same,"Plant response rating, Barnyardgrass",[13]; [18],0
same,"Plant response rating, Barnyardgrass",[13]; [19],0
same,"Plant response rating, Barnyardgrass",[13]; [20],0
same,"Plant response rating, Rice",[14]; [17],0
same,"Plant response rating, Rice",[14]; [18],0
same,"Plant response rating, Rice",[14]; [19],0
same,"Plant response rating, Rice",[14]; [20],0
